Results as given in patent US11879137B2, “Treatment of type 1 diabetes and autoimmune diseases or disorders” (THE CHILDREN'S MEDICAL CENTER CORPORATION, priority 2017, dated 2024).

Legend:
PD-L1 on CD34+ cells [1] = assay: Confocal imaging of PD-L1 on PGE2-treated CD34+ cells; type: cell-based, human; conditions: vs untreated CD34+ cells
Experimental: Immunofluorescence and confocal microscopy. Regulatory CD34+(PGE2-modulated) cells and unmodulated CD34+ cells isolated from peripheral blood of healthy controls were fixed in 4% PFA for 1h at 4 C, washed 3 times for 20 min in PBS, and cells were counterstained with blue fluorescent DAPI (1:10000, BioLegend, San Diego, CA) and anti-human PD-L1 (BD Biosciences). Cells were photographed under a 63× objective. Images were captured on a Leica SPSX system with an upright DM6000 microscope and AIR confocal microscope (Nikon Instruments, Melville, NY). Histology was evaluated by at least two expert pathologist (9).
Prostaglandin library screening. PGE2 has been described as a small molecule known to enhance the homing and engraftment of HSPCs. It was therefore sought to screen all known types of prostaglandins using the Prostaglandin Screening Library II, which contains 64 small molecules. Each small molecule contained in the library was first screened for its capacity to upregulate PD-L1 in human CD34+ cells isolated from T1D patients (FIG. 17A-17B). […] Using FACS analysis, the MFI (mean fluorescence intensity) of PD-L1 expression was calculated following treatment with each small molecule used to modulate CD34+ cells as compared to untreated/unmodulated CD34+ cells (FIG. 17B). […]

PD-L1 on CD34+ cells [2] = assay: 7-day culture of CD34+ cells with PGE2 and hematopoietic cytokines (STFIA medium), PD-L1+CD34+ by FACS; type: cell-based, human; conditions: for increase in the percentage of PD-L1+CD34+ cells: 7 days, STFIA medium, PGE2 10 μM
Experimental: FIGS. 18A-18J show effects of human PGE2-modulated and cytokine-treated CD34^+ cells. […] (FIG. 18C) Effect of PGE2 pulsing on CD34^+ cells cultured for 0, 24 h, 72 h and 6 days on PD-L1 expression on CD34^+ cells. (FIG. 18D-18E) Bar graphs showing an increase in the number of PD-L1^+CD34^+ cells and fold increase in cell number after 7 days of culture with PGE2 supplemented with cytokines. (FIG. 18F-18G) Upregulation of PD-L1 expression following culture with PGE2 (shown as percentage) on CD34^+ cells was not altered by the freeze/thawing process. (FIG. 18H) PGE2-modulated CD34^+ cells abrogate the IFN-γ autoimmune response to insulin-associated 2 (I-A2) autoantigen in vitro, as measured via the quantification of IFN-γ-producing cells in an Elispot assay; […]. (FIG. 18I) PGE2-modulated CD34^+ cells and PGE2-modulated CD34^+ cells cultured for 7 days in STFIA media abrogate the IFN-γ autoimmune response towards insulin-associated 2 (I-A2) autoantigen in vitro, as measured via the quantification of IFN-γ-producing cells in an Elispot assay, even when added at low dose. (FIG. 18J) PGE2-modulated CD34^+ cells abrogate the anti-CD3/CD28-stimulated PBMC response in vitro as measured via the quantification of IFN-γ-producing cells in an Elispot assay. […] Abbreviations: SCF, stem cell factor; TPO, thrombopoietin; hFGF-1, human fibroblast growth factor 1; IGFBP2, insulin-like growth factor-binding protein 2; Angptl3, angiopoietin-like 3; PBMCs, peripheral blood mononuclear cells.
Pharmacological modulation of human CD34+ cells. […] Data were analyzed using FlowJo software version 8.7.3 (Treestar, Ashland, OR). […]
PGE2 highly augments PD-L1 expression in human HSPCs when supplemented with hematopoietic cytokine. […] PD-L1+ HSPCs were then quantified by FACS analysis at different time points post-culture. […]

CCCCC[C@H](O)/C=C/[C@H]1[C@H](O)CC(=O)[C@@H]1C/C=C\CCCC(=O)O [PGE2, prostaglandin E2]
PD-L1 surface expression by confocal imaging (PD-L1 on CD34+ cells [1]): upregulated | increase in the percentage of PD-L1+CD34+ cells (PD-L1 on CD34+ cells [2]; HSPCs from T1D): ~5 fold | PD-L1 expression pre- and post-cryopreservation (PD-L1 on CD34+ cells [2]; fresh vs frozen HSPCs, 7 days STFIA media pulsed with PGE2): Sustained and conserved | increase in the percentage of PD-L1+CD34+ cells (PD-L1 on CD34+ cells [2]; healthy control patients): ~2 fold
